Reference: patent EP0107907A2, “Improvements in or relating to immunomodulating agents” (ELI LILLY AND COMPANY, priority 1982, dated 1984)
Marks after values point to notes of the source that are not given here.

System: Listeria monocytogenes EGD
Test: Protection of mice by pretreatment against lethal Listeria monocytogenes infection
Assay type: in vivo, CD1 mice
Details: for Average Survival Time: survivors at 14 days given 15 day survival time
Procedure: In the test CD1 mice weighing 18-20 g were pretreated parenterally with the test compound 5, 3, and 1 days before intravenous infection in the lateral tail vein with 0.1 ml containing 5 x 10^5 viable cells of Listeria monocytogenes EGD. Test compound was solubilized in pyrogen-free water and administered intraperitoneally in 0.25 ml of the solution. Ten mice each were used for each concentration tested. Ten control mice were treated intraperitoneally at 5, 3, and 1-days preinfection with 0.25 ml of pyrogen-free water. The mice were caged, watered, and fed daily. […] All surviving animals at 14 days were given an arbitrary 15 day survival time. The average survival time was calculated for each group. Significant differences between the treated and control groups of mice were determined by the standard "T" test.

`C=C(CP(=O)(O)O)NC(=O)[C@H](CC(C)C)NC(=O)CN` [Compound 1, N^2-glycyl-N-(1-methylene-2-phosphonoethyl)leucinamide] was tested, and the “Percent Survivors” value (pretreatment 6.25 mg/kg i.p., day 1 post infection) was 100%, the “Percent Survivors” value (pretreatment 6.25 mg/kg i.p., day 2 post infection) was 100% and the “Percent Survivors” value (pretreatment 6.25 mg/kg i.p., day 3 post infection) was 100%. The “Percent Survivors” value (pretreatment 6.25 mg/kg i.p., day 4 post infection) was 60%, the “Percent Survivors” value (pretreatment 6.25 mg/kg i.p., day 5 post infection) was 50% and the “Percent Survivors” value (pretreatment 6.25 mg/kg i.p., day 6 post infection) was 40%. For the same compound, the “Percent Survivors” value (pretreatment 6.25 mg/kg i.p., day 7 post infection) was 30%, the “Percent Survivors” value (pretreatment 6.25 mg/kg i.p., day 8 post infection) was 30% and the “Percent Survivors” value (pretreatment 6.25 mg/kg i.p., day 9 post infection) was 30%. For the same compound, the “Percent Survivors” value (pretreatment 6.25 mg/kg i.p., day 10 post infection) was 30%, the “Percent Survivors” value (pretreatment 6.25 mg/kg i.p., day 11 post infection) was 30% and the “Percent Survivors” value (pretreatment 6.25 mg/kg i.p., day 12 post infection) was 30%. For the same compound, the “Percent Survivors” value (pretreatment 6.25 mg/kg i.p., day 13 post infection) was 30%, the “Percent Survivors” value (pretreatment 6.25 mg/kg i.p., day 14 post infection) was 30% and the “Average Survival Time” value (pretreatment 6.25 mg/kg i.p.) was 7.9* Days. The “Percent Survivors” value (pretreatment 12.5 mg/kg i.p., day 1 post infection) was 100%, the “Percent Survivors” value (pretreatment 12.5 mg/kg i.p., day 2 post infection) was 100% and the “Percent Survivors” value (pretreatment 12.5 mg/kg i.p., day 3 post infection) was 100%. The “Percent Survivors” value (pretreatment 12.5 mg/kg i.p., day 4 post infection) was 80%, the “Percent Survivors” value (pretreatment 12.5 mg/kg i.p., day 5 post infection) was 80% and the “Percent Survivors” value (pretreatment 12.5 mg/kg i.p., day 6 post infection) was 70%. For the same compound, the “Percent Survivors” value (pretreatment 12.5 mg/kg i.p., day 7 post infection) was 70%, the “Percent Survivors” value (pretreatment 12.5 mg/kg i.p., day 8 post infection) was 70% and the “Percent Survivors” value (pretreatment 12.5 mg/kg i.p., day 9 post infection) was 70%. For the same compound, the “Percent Survivors” value (pretreatment 12.5 mg/kg i.p., day 10 post infection) was 70%, the “Percent Survivors” value (pretreatment 12.5 mg/kg i.p., day 11 post infection) was 70% and the “Percent Survivors” value (pretreatment 12.5 mg/kg i.p., day 12 post infection) was 70%. For the same compound, the “Percent Survivors” value (pretreatment 12.5 mg/kg i.p., day 13 post infection) was 70%, the “Percent Survivors” value (pretreatment 12.5 mg/kg i.p., day 14 post infection) was 70% and the “Percent Survivors” value (pretreatment 12.5 mg/kg i.p., day 15 post infection) was 70%. For the same compound, the “Average Survival Time” value (pretreatment 12.5 mg/kg i.p.) was 11.9* Days, the “Percent Survivors” value (pretreatment 25 mg/kg i.p., day 1 post infection) was 100% and the “Percent Survivors” value (pretreatment 25 mg/kg i.p., day 2 post infection) was 100%. The “Percent Survivors” value (pretreatment 25 mg/kg i.p., day 3 post infection) was 90%, the “Percent Survivors” value (pretreatment 25 mg/kg i.p., day 4 post infection) was 70% and the “Percent Survivors” value (pretreatment 25 mg/kg i.p., day 5 post infection) was 40%. For the same compound, the “Percent Survivors” value (pretreatment 25 mg/kg i.p., day 6 post infection) was 40%, the “Percent Survivors” value (pretreatment 25 mg/kg i.p., day 7 post infection) was 40% and the “Percent Survivors” value (pretreatment 25 mg/kg i.p., day 8 post infection) was 40%. The “Percent Survivors” value (pretreatment 25 mg/kg i.p., day 9 post infection) was 40%, the “Percent Survivors” value (pretreatment 25 mg/kg i.p., day 10 post infection) was 40% and the “Percent Survivors” value (pretreatment 25 mg/kg i.p., day 11 post infection) was 40%. The “Percent Survivors” value (pretreatment 25 mg/kg i.p., day 12 post infection) was 40%, the “Percent Survivors” value (pretreatment 25 mg/kg i.p., day 13 post infection) was 40% and the “Percent Survivors” value (pretreatment 25 mg/kg i.p., day 14 post infection) was 40%. The “Percent Survivors” value (pretreatment 25 mg/kg i.p., day 15 post infection) was 40%, the “Average Survival Time” value (pretreatment 25 mg/kg i.p.) was 8.6* Days and the “Percent Survivors” value (pretreatment 50 mg/kg i.p., day 1 post infection) was 100%. The “Percent Survivors” value (pretreatment 50 mg/kg i.p., day 2 post infection) was 100%, the “Percent Survivors” value (pretreatment 50 mg/kg i.p., day 3 post infection) was 80% and the “Percent Survivors” value (pretreatment 50 mg/kg i.p., day 4 post infection) was 70%. The “Percent Survivors” value (pretreatment 50 mg/kg i.p., day 5 post infection) was 40%, the “Percent Survivors” value (pretreatment 50 mg/kg i.p., day 6 post infection) was 30% and the “Percent Survivors” value (pretreatment 50 mg/kg i.p., day 7 post infection) was 30%. The “Percent Survivors” value (pretreatment 50 mg/kg i.p., day 8 post infection) was 30%, the “Percent Survivors” value (pretreatment 50 mg/kg i.p., day 9 post infection) was 30% and the “Percent Survivors” value (pretreatment 50 mg/kg i.p., day 10 post infection) was 30%. For the same compound, the “Percent Survivors” value (pretreatment 50 mg/kg i.p., day 11 post infection) was 30%, the “Percent Survivors” value (pretreatment 50 mg/kg i.p., day 12 post infection) was 30% and the “Percent Survivors” value (pretreatment 50 mg/kg i.p., day 13 post infection) was 30%. For the same compound, the “Percent Survivors” value (pretreatment 50 mg/kg i.p., day 14 post infection) was 30%, the “Percent Survivors” value (pretreatment 50 mg/kg i.p., day 15 post infection) was 30% and the “Average Survival Time” value (pretreatment 50 mg/kg i.p.) was 7.6* Days. The “Percent Survivors” value (pretreatment 100 mg/kg i.p., day 1 post infection) was 100%, the “Percent Survivors” value (pretreatment 100 mg/kg i.p., day 2 post infection) was 100% and the “Percent Survivors” value (pretreatment 100 mg/kg i.p., day 3 post infection) was 80%. The “Percent Survivors” value (pretreatment 100 mg/kg i.p., day 4 post infection) was 50%, the “Percent Survivors” value (pretreatment 100 mg/kg i.p., day 5 post infection) was 50% and the “Percent Survivors” value (pretreatment 100 mg/kg i.p., day 6 post infection) was 50%. The “Percent Survivors” value (pretreatment 100 mg/kg i.p., day 7 post infection) was 50%, the “Percent Survivors” value (pretreatment 100 mg/kg i.p., day 8 post infection) was 50% and the “Percent Survivors” value (pretreatment 100 mg/kg i.p., day 9 post infection) was 50%. For the same compound, the “Percent Survivors” value (pretreatment 100 mg/kg i.p., day 10 post infection) was 50%, the “Percent Survivors” value (pretreatment 100 mg/kg i.p., day 11 post infection) was 50% and the “Percent Survivors” value (pretreatment 100 mg/kg i.p., day 12 post infection) was 50%. The “Percent Survivors” value (pretreatment 100 mg/kg i.p., day 13 post infection) was 50%, the “Percent Survivors” value (pretreatment 100 mg/kg i.p., day 14 post infection) was 50% and the “Percent Survivors” value (pretreatment 100 mg/kg i.p., day 15 post infection) was 50%. For the same compound, the “Average Survival Time” value (pretreatment 100 mg/kg i.p.) was 9.3* Days and the “protecting mice against a lethal Listeria monocytogenes EGD infection” value (pretreatment 5, 3, and 1 days before intravenous infection, intraperitoneally) was “highly effective”.
